Measured values published in patent US20180265463A1, “Vitamin D3 Derivatives and Pharmaceutical Use Thereof” (Kyoto University, priority 2014, published 2018).
Entries after “also recorded” stand apart in the source; their conditions may differ. Read-outs that look alike come from different tables or passages of the source.

Legend:
Type in all cases: cell-based, Chinese hamster
[1] = tested on: SREBP-2; assay: Western-blot analysis of SREBP-2 in CHO-K1 cells; conditions: 5 μM; for levels of the mature form of SREBP versus DMSO: 16 h, CHO-K1 cells (FIG. 7, FIG. 8)
Method: CHO-K1 cells were treated with DMSO alone or each molecule (5 μM) for 18 h. The levels of precursor and mature forms of SREBP-2 were analyzed by Western-blot. Western-blots of actin are shown in lower panel as a loading control.
CHO-K1 cells were treated with DMSO alone or each molecule (5 μM) for 16 h. The levels of precursor and mature forms of SREBP-2 were analyzed by Western-blot. Western-blots of actin are shown in lower panel as a loading control.
On day 0, CHO-K1 cells were added to 6-well plates at 3.0×10^5 cells per well in medium A. On day 1, the cells were washed with PBS, and then incubated in medium B in the absence or presence of specific test compounds (5 μM). After 16 h of incubation, the cells were washed three times with cold PBS, and lysed with a buffer A (50 mM Tris-HCl (pH 7.5), 150 mM NaCl, 1% (v/v) Nonidet P40, 0.5% (w/v) sodium deoxycholate, 8 M urea, and protease inhibitor cocktail (Nacalai)). The cell lysate were passed 16 times through a 25 G needle and centrifuged at 7,000 g at 4° C. for 10 min. The supernatants were transferred to new tubes, and the pellets were extracted with a buffer A. The resulting buffer was centrifuged at 7,000 g at 4° C. for 10 min, and the supernatants were combined to the previous ones. The resulting lysate was mixed with 0.20 volume of 6×SDS sample buffer (Nacalai) and incubated at room temperature for 30 min. The samples were separated on a 10% SDS-PAGE gel and blotted, using mouse monoclonal antibodies against SREBP-2 (IgG-7D4), SCAP (IgG-9D5), c-Myc (IgG1-MC045), and actin (AC-40). The specific bands were visualized using enhanced chemiluminescence (ECL Prime Western Blotting Detection Reagent, GE Healthcare) on an ImageQuant LAS 500 (GE Healthcare).

[2] = target: SREBP; assay: SRE-driven luciferase reporter assay of SREBP activation; conditions: luciferase reporter in CHO-K1 cells, lipid-depleted medium, 20-24 h, normalized to β-galactosidase, averages of three independent experiments, read-out: IC50 (μM), inhibitory effect on the activation of SREBP
Method: The transfected cells were treated with DMSO alone, sterols (10 μg/mL cholesterol and 1.0 μg/mL 25-HC), or varied concentrations of 25(OH)D in a medium containing lipid-free serum. Luciferase activity was measured after 20 h incubation, and the data were normalized to β-galactosidase activity. Values are the mean±SD of three independent experiments.
The molecules in a chemical library which consists of 280 endogenous lipid related molecules were screened for their ability to inhibit the expression of a luciferase reporter gene. In this gene, three repeats of sterol regulatory elements (SREs) control expression of luciferase. Lipid depletion activates SREBPs, which bind to the SRE domain and work as transcription factors to express luciferase. The SREBP-responsive reporter construct was co-transfected into Chinese hamster ovary K1 (CHO-K1) cells, along with a control β-galactosidase (β-gal) reporter gene. A constitutively active actin promoter in the reporter gene drives the expression of β-gal. The levels of luciferase expression from the SREBP-responsive reporter gene were normalized to the levels of β-gal expression.
CHO-K1 cells were maintained in a medium A (1:1 mixture of Ham's F-12 medium and Dulbecco's modified Eagle medium, supplemented with 100 units/mL penicillin, 100 μg/mL streptomycin sulfate, and 5% (v/v) fetal bovine serum) at 37° C. under humidified 5% CO2.
On day 0, CHO-K1 cells were added to 96-well plates at 1.0×10^4 cells per well in medium A. On day 1, the cells were co-transfected with an SRE-1-driven luciferase reporter construct (pSRE-Luc) and pAc-β-gal at a 20/1 ratio, using FuGENE(Registered trademark) HD transfection reagent (Promega), according to the manufacturer's protocol. After 8-12 h of incubation, the cells were washed with PBS buffer, then incubated in medium B containing the specific test compounds. […] After 20-24 h of incubation, the cells in each well were lysed by freeze-thaw with Reporter Lysis Buffer (Promega), and aliquots were used to measure luciferase and β-galactosidase activities. Luciferase activity was measured using the Steady-Glo(Registered trademark) Luciferase Assay System (Promega), and β-galactosidase activity was measured using the β-galactosidase Enzyme Assay System (Promega). Luciferase activity was normalized to β-galactosidase activity.

[3] = tested on: SREBP-2 fragment fused to PLAP (PLAP-BP2513-1141); assay: PLAP-BP assay (secreted alkaline phosphatase reporter of SREBP translocation and processing); conditions: VD derivatives 10 μM, 20 h, CHO-K1 co-transfected with PLAP-BP2 and SCAP; average of two experiments

| Molecule | levels of the mature form of SREBP versus DMSO [1] | IC50 [2] | IC50 ([2]; Cricetulus griseus) | other results |
| --- | --- | --- | --- | --- |
| 1α-NH(p-CF3Bz) VD3 [Compound 38] | lower than that of DMSO | 1.76 µM |  |  |
| 1α-NHNs VD3 [Compound 28] | lower than that of DMSO | 0.68 µM |  |  |
| 1α-OH-3α-NHPhth VD3 [Compound 77] |  | 1.55 µM |  |  |
| 1α-OH-3α-NHTs VD3 [Compound 73] |  | 2.71 µM |  |  |
| 19-Nor 1β-NH(p-SCF3Bz)-3β-OH VD3 [Compound 74] |  | 1.11 µM |  |  |
| 19-Nor 1β-NHTs-3β-OH VD3 [Compound 72] |  | 1.69 µM |  |  |
| 19-Nor 1β-NPhth-3β-OH VD3 [Compound 76] |  | 2.05 µM |  |  |
| C=C1/C(=C\C=C2/CCC[C@]3(C)[C@@H]([C@H](C)CCCC(C)(C)O)CC[C@@H]23)C[C@@H](O)C[C@@H]1O [1,25(OH)2D, 1α,25-dihydroxyvitamin D3] |  |  |  | secretion of PLAP [3]: inhibited the secretion of PLAP to a greater extent than sterol; also recorded: caused a greater decrease in PLAP secretion than did cholesterol |
| C=C1C(=CC=C2CCCC3(C)C2CCC3C(C)CCCC(C)C)CC(O)CC1NC(=O)OC(C)(C)C (stereo not drawn) [Compound 18a, 1α-NHBoc VD3] |  | 0.82 µM |  |  |
| C=C1C(=CC=C2CCCC3(C)C2CCC3C(C)CCCC(C)C)CC(O)CC1NC(C)=O (stereo not drawn) [Compound 22a, 1α-NHAc VD3] | lower than that of DMSO | 3.24 µM |  |  |
| C=C1C(=CC=C2CCCC3(C)C2CCC3C(C)CCCC(C)C)CC(O)CC1NC(C)=O (stereo not drawn) [Compound 22b, 1β-NHAc VD3] | lower than that of DMSO | 3.56 µM |  |  |
| C[C@H](CCCC(C)(C)O)[C@H]1CC[C@H]2[C@@H]3CC=C4C[C@@H](O)CC[C@]4(C)[C@H]3CC[C@]12C [Compound 25-HC, 25-hydroxycholesterol, reference compound] |  |  |  | level of mature form of SREBP ([1]; 18 h, CHO-K1 cells (FIG. 3)): disappeared; level of precursor form of SREBP ([1]; 18 h, CHO-K1 cells (FIG. 3)): accumulated |
| C=C1C(=CC=C2CCCC3(C)C2CCC3C(C)CCCC(C)C)CC(O)CC1NS(=O)(=O)c1ccc(C)cc1 (stereo not drawn) [Compound 32, 1α-NHTs VD3] | lower than that of DMSO | 0.61 µM |  |  |
| C=C1C(=CC=C2CCCC3(C)C2CCC3C(C)CCCC(C)C)CC(O)CC1NC(=O)OCc1ccccc1 (stereo not drawn) [Compound 36, 1α-NHCbz VD3] | lower than that of DMSO | 1.38 µM |  |  |
| C=C1/C(=C\C=C2/CCC[C@]3(C)[C@@H]([C@H](C)CCCC(C)(C)O)CC[C@@H]23)C[C@@H](O)C[C@@H]1NC(=O)c1ccc(Br)cc1 [Compound 39, 1α-NH(p-BrBz) VD3] | lower than that of DMSO |  | 0.97 µM |  |
| C=C1/C(=C\C=C2/CCC[C@]3(C)[C@@H]([C@H](C)CCCC(C)(C)O)CC[C@@H]23)C[C@@H](O)C[C@@H]1NCC1CC1 [Compound 49, 1α-NH(Cyclopropylmethyl) VD3] |  |  | 16 µM |  |
| Cc1ccc(S(=O)(=O)N[C@@H]2C/C(=C\C=C3/CCC[C@]4(C)[C@@H]([C@H](C)CCCC(C)(C)O)CC[C@@H]34)C[C@@H](O)C2)cc1 [Compound 85, 19-Nor 1α-NHTs-3β-OH VD3] |  |  | 0.52 µM |  |
| C[C@H](CCCC(C)(C)O)[C@H]1CC[C@H]2/C(=C/C=C3/C[C@@H](O)C[C@H](NC(=O)c4ccc(SC(F)(F)F)cc4)C3)CCC[C@]12C [Compound 86, 19-Nor 1α-NH(p-SCF3Bz)-3β-OH VD3] |  |  | 0.53 µM |  |
| C[C@H](CCCC(C)(C)O)[C@H]1CC[C@H]2/C(=C/C=C3/C[C@@H](O)C[C@H](N4C(=O)c5ccccc5C4=O)C3)CCC[C@]12C [Compound 87, 19-Nor 1α-NPhth-3β-OH VD3] |  |  | 0.52 µM |  |
| C[C@H](CCCC(C)(C)O)[C@H]1CC[C@H]2/C(=C/C=C3/C[C@@H](O)C[C@H](NS(C)(=O)=O)C3)CCC[C@]12C [Compound 89, 19-Nor 1α-NHMs-3β-OH VD3] |  |  | 3.34 µM |  |
| C[C@H](CCCC(C)(C)O)[C@H]1CC[C@H]2/C(=C/C=C3/C[C@@H](O)C[C@H](NC(=O)C(F)(F)F)C3)CCC[C@]12C [Compound 90, 19-Nor 1α-NH(Trifluoroacetyl)-3β-OH VD3] |  |  | 0.83 µM |  |
| C[C@H](CCCC(C)(C)O)[C@H]1CC[C@H]2/C(=C/C=C3/C[C@@H](O)C[C@H](NS(=O)(=O)c4cccc5c(N(C)C)cccc45)C3)CCC[C@]12C [Compound 91, 19-Nor 1α-NHDns-3β-OH VD3] |  |  | 1.17 µM |  |
| C[C@H](CCCC(C)(C)O)[C@H]1CC[C@H]2/C(=C/C=C3/C[C@@H](O)C[C@H](F)C3)CCC[C@]12C [Compound 98, 19-Nor 1α-F-3β-OH VD3] |  |  | 1.59 µM |  |
